Test systems include K-562 leukemia; IGROV1 ovarian; SF-295 CNS; MOLT-4 leukemia; UACC-257 melanoma; KM12 colon; SN12C renal; SF-539 CNS; T-47D breast; MDA-MB-231 breast.
Common to all, as to test: DTP human tumour cell line panel, 48 h

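96-well plates; 48 h exposure; 5 concentrations. Endpoints by linear interpolation between flanking doses. Not reached: highest tested concentration assigned. GI50 = concentration required for 50% inhibition of growth. The concentration for full growth arrest is given as TGI.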 Some results are limits rather than exact numbers.

In the case of `CN1C(c2ccccc2)CC(=Nc2ccccc2)CC1c1ccccc1` (stereo not given), the concentration for total growth inhibition (TGI) was more than 100 µM with K-562 leukemia; 38.4 µM in the assay with IGROV1 ovarian; 31.1 µM in the assay with SF-295 CNS; 28.7 µM in the assay on MOLT-4 leukemia; 24.1 µM in the assay on UACC-257 melanoma.
Turning to `CCN=C1NN=C(c2ccccc2)c2cc(Cl)ccc2N1`, the TGI in the assay on K-562 leukemia is more than 100 µM; with IGROV1 ovarian, 70 µM; in the assay on KM12 colon, 31.1 µM; in the assay with SF-295 CNS it was 37.5 µM; in the assay on SN12C renal it was 88.5 µM; with MOLT-4 leukemia, 94.8 µM. Moreover, the TGI in the assay on SF-539 CNS amounted to 35.8 µM; in the assay with UACC-257 melanoma, 34.3 µM.
Regarding `CCOC(=O)/C(C#N)=C(O)/C(=C/c1ccccc1Cl)NC(=O)c1ccccc1`, the TGI in the assay with K-562 leukemia, with IGROV1 ovarian, in the assay with KM12 colon, in the assay on SF-295 CNS, with SN12C renal and in the assay with MOLT-4 leukemia was more than 100 µM throughout. For the same molecule, the TGI with SF-539 CNS and with UACC-257 melanoma was more than 100 µM in each case.
As for `COc1ccc(Cl)cc1N1C(=O)C(Cl)=C(Nc2cccc(O)c2)C1=O`, the GI50 in the assay on K-562 leukemia was 18.5 µM; in the assay with KM12 colon it was 28.7 µM; in the assay with SF-295 CNS it was 17.1 µM; in the assay on SN12C renal, 14.7 µM; in the assay with MOLT-4 leukemia, 15.4 µM; with T-47D breast, 22.6 µM. Besides, the TGI in the assay on K-562 leukemia was 46.2 µM; in the assay on KM12 colon, more than 100 µM; with SF-295 CNS it was 82.9 µM; in the assay with SN12C renal, 29.8 µM; in the assay with MOLT-4 leukemia, 49.4 µM; in the assay with T-47D breast, more than 100 µM.
Turning to `C/C(=N\NC(=S)N(C)C)c1ncc[nH]1`, the TGI was 21.2 µM in the assay with K-562 leukemia; 7.71 µM with IGROV1 ovarian; more than 100 µM with KM12 colon; more than 100 µM in the assay with SF-295 CNS; 66.5 µM in the assay with SN12C renal; 24 µM in the assay on MOLT-4 leukemia. Besides, the TGI was 8.15 µM in the assay on SF-539 CNS and 7.52 µM in the assay on UACC-257 melanoma.
On to `Cc1cccc(C(C)(C)C)c1NC(=O)CC1C(=O)Nc2ccccc2S1=O` (stereo not given), for which the TGI was more than 100 µM in the assay on K-562 leukemia; more than 100 µM in the assay on KM12 colon; more than 100 µM with SF-295 CNS; more than 100 µM in the assay with SN12C renal; 69.2 µM in the assay on MOLT-4 leukemia; more than 100 µM in the assay on SF-539 CNS. Moreover, in the assay on UACC-257 melanoma, the TGI was more than 100 µM.
On to `COc1ccccc1NC(=O)CC(=O)n1nc(C)c(N=Nc2ccccc2F)c1C`, for which the TGI in the assay with K-562 leukemia was more than 31.6 µM; in the assay with IGROV1 ovarian, more than 100 µM; in the assay with KM12 colon, more than 100 µM; in the assay with SF-295 CNS, more than 100 µM; with SN12C renal, more than 100 µM; with MOLT-4 leukemia, more than 31.6 µM. The TGI in the assay with SF-539 CNS was more than 64 µM; with UACC-257 melanoma, more than 100 µM.
As to `C/C(=N\NC(N)=S)c1ccc(/C(C)=N/NC(N)=S)cc1`, the TGI in the assay with K-562 leukemia, in the assay with IGROV1 ovarian, in the assay with KM12 colon, with SF-295 CNS, in the assay on SN12C renal and in the assay with MOLT-4 leukemia was more than 100 µM each time. Moreover, the concentration for total growth inhibition (TGI) in the assay on SF-539 CNS and in the assay on UACC-257 melanoma was more than 100 µM throughout.
With `Cc1cc2c(C(C)C)c(O)c(O)c3coc(/c1=c1/c(C)cc4c(C(C)C)c(=O)c(=O)c5coc1c45)c32`, the TGI came to 16.5 µM in the assay with K-562 leukemia; 15.1 µM in the assay with IGROV1 ovarian; 14.9 µM in the assay on KM12 colon; 16.2 µM in the assay on SF-295 CNS; 23.7 µM in the assay on SN12C renal; 17.4 µM in the assay on MOLT-4 leukemia. Besides, the figures for the TGI in the assay with SF-539 CNS and in the assay with UACC-257 melanoma were 12.9 µM and 31 µM, respectively.
For `C=CCOc1cc2c(cc1C(C)c1ccc(OC)cc1)OCO2` (stereo not given), the TGI with MDA-MB-231 breast is more than 100 µM; with K-562 leukemia it was more than 100 µM; in the assay on IGROV1 ovarian it was more than 100 µM; in the assay on KM12 colon, 65.9 µM; in the assay on SF-295 CNS, 0.817 µM; in the assay with SN12C renal, more than 100 µM. For the same molecule, the results for the TGI with MOLT-4 leukemia, with SF-539 CNS and in the assay with UACC-257 melanoma were more than 40.6 µM, 1.34 µM and 6.44 µM, respectively.
With `N=C(c1ccccc1)N1CCCCC1`, the TGI in the assay with KM12 colon, in the assay with SF-295 CNS, in the assay on SN12C renal, in the assay on SF-539 CNS and in the assay on UACC-257 melanoma was more than 100 µM in each case.
As for `COc1cc2c(cc1OC)-c1c(cnn1C1OC(COC(C)=O)C(OC(C)=O)C(OC(C)=O)C1OC(C)=O)CC2` (stereo not given), the TGI with K-562 leukemia, in the assay on IGROV1 ovarian, with KM12 colon, in the assay on SF-295 CNS, in the assay with MOLT-4 leukemia and with SF-539 CNS was more than 100 µM in each case. Besides, the TGI in the assay on UACC-257 melanoma is more than 100 µM.
With `C/C(=N\NC(N)=S)c1ccc2c(c1)OCO2`, the TGI in the assay with K-562 leukemia, in the assay on IGROV1 ovarian, with KM12 colon, in the assay with SF-295 CNS, in the assay with SN12C renal and in the assay on MOLT-4 leukemia was more than 100 µM throughout. Besides, the TGI with SF-539 CNS and with UACC-257 melanoma was more than 100 µM in each case.
Turning to `CC(C)=CC(=O)Cc1nc2ccccc2[nH]c1=O`, the total growth inhibition concentration (TGI) with K-562 leukemia, in the assay with IGROV1 ovarian, in the assay on KM12 colon, with SF-295 CNS, in the assay with SN12C renal and in the assay with MOLT-4 leukemia was more than 100 µM throughout. Also, the TGI in the assay with SF-539 CNS and in the assay on UACC-257 melanoma was more than 100 µM in each case.
For `COc1n[n+]([O-])c(C)cc1[N+](=O)[O-]`, the GI50 with MDA-MB-231 breast was 19.5 µM; in the assay on IGROV1 ovarian it was 12.1 µM; in the assay with KM12 colon, 11.4 µM; in the assay with SF-295 CNS it was 11.3 µM; with SN12C renal, 13.5 µM; with MOLT-4 leukemia, 10.7 µM. The GI50 is 19.5 µM in the assay on SF-539 CNS and 10.9 µM in the assay on UACC-257 melanoma. Also, the TGI in the assay on MDA-MB-231 breast stood at 42.2 µM; in the assay on IGROV1 ovarian, 24.8 µM; in the assay on KM12 colon, 30.3 µM; with SF-295 CNS, 28.5 µM; in the assay on SN12C renal, 31.6 µM; with MOLT-4 leukemia, 35.1 µM. Also, the TGI with SF-539 CNS worked out at 35.4 µM; in the assay on UACC-257 melanoma, 24.4 µM.

Values taken from PubChem BioAssay (NCI).
